What was measured:
[1] = test system: NCI-H358 cells (K-Ras G12C); assay: CellTiter-Glo cell viability, NCI-H358; format: cell-based, human; conditions: Homo sapiens, NCI-H358, 120 h, K-Ras G12C, 5-day treatment; read-out: H358 Cell Viability IC50
Outline: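 Five-day treatment of K-Ras mutant cells with directly dispensed compound; ATP-based luminescence endpoint. Percent of DMSO signal fit to four-parameter logistic curve.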

[2] = molecular target: KRAS WT binding to BRAF RBD (Homo sapiens (Human), UniProt P01116+P62937); assay: Ras-Raf disruption/FRET/MOA assay, KRAS WT; format: biochemical
Sequence of KRAS WT binding to BRAF RBD (P01116 other isoform, or with tags, fused parts or gaps): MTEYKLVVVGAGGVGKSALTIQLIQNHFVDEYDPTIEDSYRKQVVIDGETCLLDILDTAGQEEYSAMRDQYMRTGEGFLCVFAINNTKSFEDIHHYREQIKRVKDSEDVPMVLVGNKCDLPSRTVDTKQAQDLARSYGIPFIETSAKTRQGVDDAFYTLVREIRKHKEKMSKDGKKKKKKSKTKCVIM
Sequence of KRAS WT binding to BRAF RBD (P62937 whole entry): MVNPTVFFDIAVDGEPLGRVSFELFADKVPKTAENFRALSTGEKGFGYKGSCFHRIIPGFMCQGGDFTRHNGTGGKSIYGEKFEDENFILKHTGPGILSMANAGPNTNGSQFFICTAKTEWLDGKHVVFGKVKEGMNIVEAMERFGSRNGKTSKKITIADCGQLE
Outline: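 TR-FRET disruption assay: His6-tagged GMPPNP-loaded Ras (12.5 nM), GST-BRAF RBD (50 nM) and Cyclophilin A (25 μM) incubated with compound (10-point 3-fold series from 30 μM) 3 h at 25°C in HEPES pH 7.3 buffer with MgCl2 and NaCl. Anti-His Eu (10 nM)/anti-GST APC (50 nM) added, 1.5 h more; IC50 from FRET-ratio decrease versus DMSO.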

[3] = molecular target: KRAS WT (Homo sapiens (Human), UniProt P01116+P62937); assay: Ras-Raf disruption/FRET/MOA assay (BRAF RBD, Cyclophilin A); format: biochemical; conditions: read-out: KRAS WT FRET data IC50
Sequence of KRAS WT (P01116 other isoform, or with tags, fused parts or gaps): as the sequence (P01116 other isoform, or with tags, fused parts or gaps) above
Sequence of KRAS WT (P62937 whole entry): as the sequence (P62937 whole entry) above
Outline: (§1)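 Measured: compound-facilitated Cyclophilin A:Ras complex blocking RAF RBD binding. Conditions: 12.5 nM Ras-GMPPNP, 50 nM BRAF RBD, 25 μM CypA, 3 h plus 1.5 h detection. Output: IC50 from TR-FRET ratio.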

[4] = molecular target: KRAS G13C (Homo sapiens (Human), UniProt P01116+P62937, G13C); assay: as above; format: biochemical; conditions: read-out: KRAS G13C FRET IC50
Sequence of KRAS G13C (P01116 other isoform, or with tags, fused parts or gaps G13C): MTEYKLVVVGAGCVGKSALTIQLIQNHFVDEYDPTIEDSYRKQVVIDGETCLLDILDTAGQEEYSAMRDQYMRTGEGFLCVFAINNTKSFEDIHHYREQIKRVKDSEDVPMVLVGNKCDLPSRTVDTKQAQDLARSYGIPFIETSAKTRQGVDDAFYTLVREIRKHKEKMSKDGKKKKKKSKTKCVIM
Sequence of KRAS G13C (P62937 whole entry): as the sequence (P62937 whole entry) above
Outline: as §1

[5] = molecular target: KRAS G12S (Homo sapiens (Human), UniProt P01116+P62937, G12S); assay: as above; format: biochemical; conditions: read-out: KRAS G12S FRET IC50
Sequence of KRAS G12S (P01116 other isoform, or with tags, fused parts or gaps G12S): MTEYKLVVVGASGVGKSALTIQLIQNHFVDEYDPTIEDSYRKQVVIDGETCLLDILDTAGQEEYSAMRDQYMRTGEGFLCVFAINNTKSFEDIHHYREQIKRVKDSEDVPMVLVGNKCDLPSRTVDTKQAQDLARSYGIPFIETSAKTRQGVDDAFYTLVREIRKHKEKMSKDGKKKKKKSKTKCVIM
Sequence of KRAS G12S (P62937 whole entry): as the sequence (P62937 whole entry) above
Outline: as §1

[6] = molecular target: KRAS G12C (Homo sapiens (Human), UniProt P01116+P62937, G12C); assay: as above; format: biochemical; conditions: read-out: KRAS G12C FRET IC50
Sequence of KRAS G12C (P01116-2 other isoform, or with tags, fused parts or gaps G12C): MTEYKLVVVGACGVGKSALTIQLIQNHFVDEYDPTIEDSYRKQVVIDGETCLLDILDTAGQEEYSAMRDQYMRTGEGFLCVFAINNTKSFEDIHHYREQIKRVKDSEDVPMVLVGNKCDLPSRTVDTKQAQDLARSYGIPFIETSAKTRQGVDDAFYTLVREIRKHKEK
Sequence of KRAS G12C (P62937 whole entry): as the sequence (P62937 whole entry) above
Outline: as §1

[7] = molecular target: KRAS G13D (Homo sapiens (Human), UniProt P01116+P62937, G13D); assay: as above; format: biochemical; conditions: read-out: KRAS G13D FRET data IC50
Sequence of KRAS G13D (P01116 other isoform, or with tags, fused parts or gaps G13D): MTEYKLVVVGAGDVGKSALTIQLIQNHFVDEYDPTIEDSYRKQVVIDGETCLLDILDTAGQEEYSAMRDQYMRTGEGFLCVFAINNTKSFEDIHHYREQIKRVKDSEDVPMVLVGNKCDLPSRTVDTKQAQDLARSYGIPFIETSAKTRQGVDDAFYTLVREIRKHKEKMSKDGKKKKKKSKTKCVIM
Sequence of KRAS G13D (P62937 whole entry): as the sequence (P62937 whole entry) above
Outline: as §1

[8] = molecular target: KRAS G12D (Homo sapiens (Human), UniProt P01116+P62937, G12D); assay: as above; format: biochemical; conditions: read-out: KRAS G12D FRET IC50
Sequence of KRAS G12D (P01116 other isoform, or with tags, fused parts or gaps G12D): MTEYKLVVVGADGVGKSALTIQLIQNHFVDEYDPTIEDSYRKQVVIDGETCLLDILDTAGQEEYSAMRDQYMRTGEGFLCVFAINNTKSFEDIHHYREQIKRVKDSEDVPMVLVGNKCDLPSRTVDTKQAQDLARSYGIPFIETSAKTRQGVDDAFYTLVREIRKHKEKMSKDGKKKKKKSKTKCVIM
Sequence of KRAS G12D (P62937 whole entry): as the sequence (P62937 whole entry) above
Outline: as §1

[9] = molecular target: NRAS G12C (Homo sapiens (Human), UniProt P01111+P62937, G12C); assay: as above; format: biochemical; conditions: read-out: NRAS G12C FRET data IC50
Sequence of NRAS G12C (P01111 whole entry G12C): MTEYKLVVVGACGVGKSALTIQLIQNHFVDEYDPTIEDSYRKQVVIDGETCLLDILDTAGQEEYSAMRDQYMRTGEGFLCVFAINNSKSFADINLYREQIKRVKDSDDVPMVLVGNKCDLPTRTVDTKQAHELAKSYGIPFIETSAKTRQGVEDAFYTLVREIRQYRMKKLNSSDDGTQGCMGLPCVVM
Sequence of NRAS G12C (P62937 whole entry): as the sequence (P62937 whole entry) above
Outline: (§2)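 First, 25 μM Cyclophilin A, 12.5 nM His6-Ras-GMPPNP and 50 nM GST-BRAF RBD are mixed with diluted compound at pH 7.3. Next, 3 h at 25° C. Then 10 nM anti-His Eu-W1024 plus 50 nM anti-GST allophycocyanin for 1.5 h before TR-FRET reading.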

[10] = molecular target: KRAS G12V (Homo sapiens (Human), UniProt P01116+P62937, G12V); assay: as above; format: biochemical; conditions: read-out: KRAS G12V FRET IC50
Sequence of KRAS G12V (P01116 other isoform, or with tags, fused parts or gaps G12V): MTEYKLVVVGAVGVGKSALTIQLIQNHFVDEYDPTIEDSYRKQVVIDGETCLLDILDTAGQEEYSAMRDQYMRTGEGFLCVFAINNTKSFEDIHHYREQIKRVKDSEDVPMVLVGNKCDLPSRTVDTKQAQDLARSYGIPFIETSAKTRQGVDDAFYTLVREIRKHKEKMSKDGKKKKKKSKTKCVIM
Sequence of KRAS G12V (P62937 whole entry): as the sequence (P62937 whole entry) above
Outline: as §1

[11] = molecular target: NRAS Q61R (Homo sapiens (Human), UniProt P01111+P62937, Q61R); assay: as above; format: biochemical
Sequence of NRAS Q61R (P01111 whole entry Q61R): as the sequence (P01111 whole entry G12C) above, with C12G, Q61R counted along it
Sequence of NRAS Q61R (P62937 whole entry): as the sequence (P62937 whole entry) above
Outline: as §2

[12] = molecular target: KRAS Q61H (Homo sapiens (Human), UniProt P01116+P62937, Q61H); assay: as above; format: biochemical
Sequence of KRAS Q61H (P01116 other isoform, or with tags, fused parts or gaps Q61H): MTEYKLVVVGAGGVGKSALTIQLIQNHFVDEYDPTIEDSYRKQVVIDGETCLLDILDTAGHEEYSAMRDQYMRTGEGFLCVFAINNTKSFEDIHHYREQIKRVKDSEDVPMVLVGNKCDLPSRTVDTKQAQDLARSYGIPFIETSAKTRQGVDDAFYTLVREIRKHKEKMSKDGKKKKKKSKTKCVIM
Sequence of KRAS Q61H (P62937 whole entry): as the sequence (P62937 whole entry) above
Outline: as §1

[13] = molecular target: NRAS Q61K (Homo sapiens (Human), UniProt P01111+P62937, Q61K); assay: as above; format: biochemical
Sequence of NRAS Q61K (P01111 whole entry Q61K): as the sequence (P01111 whole entry G12C) above, with C12G, Q61K counted along it
Sequence of NRAS Q61K (P62937 whole entry): as the sequence (P62937 whole entry) above
Outline: as §2

[14] = molecular target: NRAS WT (Homo sapiens (Human), UniProt P01111+P62937); assay: as above; format: biochemical
Sequence of NRAS WT (P01111 whole entry): as the sequence (P01111 whole entry G12C) above, with C12G counted along it
Sequence of NRAS WT (P62937 whole entry): as the sequence (P62937 whole entry) above
Outline: as §2

IC50 [1] [nM]	IC50 [2] [nM]	IC50 [3] [nM]	IC50 [4] [nM]	IC50 [5] [nM]	IC50 [6] [nM]	IC50 [7] [nM]	IC50 [8] [nM]	IC50 [9] [nM]	IC50 [10] [nM]	IC50 [11] [nM]	IC50 [12] [nM]	IC50 [13] [nM]	IC50 [14] [nM]	SMILES
1000 to 10000	10 to 100	1000 to 10000	100 to 1000	1000 to 10000	1000 to 10000	1000 to 10000	> 10000	1000 to 10000	1000 to 10000	–	–	–	–	CCn1c(-c2cccnc2[C@H](C)OC)c2c3cc(ccc31)-c1cc(O)cc(c1)C[C@H](NC(=O)[C@@H](C(C)C)N(C)C(C)=O)C(=O)N1CCC[C@H](N1)C(=O)OCC(C)(C)C2 [Compound A256]
–	10 to 100	100 to 1000	10 to 100	100 to 1000	10 to 100	10 to 100	100 to 1000	10 to 100	1000 to 10000	–	–	–	–	CCn1c(-c2cccnc2[C@H](C)OC)c2c3cc(ccc31)-c1cc(O)cc(c1)C[C@H](NC(=O)[C@H](C(C)C)N(C)C(=O)C1CNCCNC1)C(=O)N1CCC[C@H](N1)C(=O)OCC(C)(C)C2 [Compound A432]
100 to 1000	–	10 to 100	100 to 1000	100 to 1000	100 to 1000	100 to 1000	100 to 1000	10 to 100	100 to 1000	100 to 1000	10 to 100	100 to 1000	10 to 100	CCn1c(-c2cccnc2[C@H](C)OC)c2c3cc(ccc31)-c1csc(n1)C[C@H](NC(=O)[C@H](C(C)C)N(C)C(=O)N1CCCC13CN(C)C3)C(=O)N1CCC[C@H](N1)C(=O)OCC(C)(C)C2 [Compound A545]
10 to 100	–	100 to 1000	100 to 1000	100 to 1000	100 to 1000	100 to 1000	100 to 1000	10 to 100	100 to 1000	100 to 1000	10 to 100	100 to 1000	100 to 1000	CCn1c(-c2cccnc2[C@H](C)OC)c2c3cc(ccc31)-c1csc(n1)C[C@H](NC(=O)[C@H](C(C)C)N(C)C(=O)N1CC[C@@H](F)[C@H](N)C1)C(=O)N1CCC[C@H](N1)C(=O)OCC(C)(C)C2 [Compound A559]
10 to 100	–	100 to 1000	100 to 1000	100 to 1000	100 to 1000	100 to 1000	1000 to 10000	100 to 1000	100 to 1000	100 to 1000	100 to 1000	100 to 1000	100 to 1000	CCn1c(-c2cccnc2[C@H](C)OC)c2c3cc(ccc31)-c1csc(n1)C[C@H](NC(=O)[C@H](C(C)C)N(C)C(=O)N1CC(O)(CN(C)C)C1)C(=O)N1CCC[C@H](N1)C(=O)OCC(C)(C)C2 [Compound A597]
100 to 1000	–	10 to 100	10 to 100	100 to 1000	10 to 100	100 to 1000	100 to 1000	10 to 100	100 to 1000	100 to 1000	10 to 100	100 to 1000	100 to 1000	CCn1c(-c2cccnc2[C@H](C)OC)c2c3cc(ccc31)-c1cc(O)cc(c1)C[C@H](NC(=O)[C@H](C(C)C)N(C)C(=O)[C@]1(F)CCN(C(=O)OC)C1)C(=O)N1CCC[C@H](N1)C(=O)OCC(C)(C)C2 [Compound A616]

More lines, now with the values behind:

SMILES	IC50 [1] [nM]	IC50 [2] [nM]	IC50 [3] [nM]	IC50 [4] [nM]	IC50 [5] [nM]	IC50 [6] [nM]	IC50 [7] [nM]	IC50 [8] [nM]	IC50 [9] [nM]	IC50 [10] [nM]	IC50 [11] [nM]	IC50 [12] [nM]	IC50 [13] [nM]	IC50 [14] [nM]
CCn1c(-c2cccnc2[C@H](C)OC)c2c3cc(ccc31)-c1csc(n1)C[C@H](NC(=O)[C@H](C(C)C)N(C)C(=O)N1CC(N3CCC3)C1)C(=O)N1CCC[C@H](N1)C(=O)OCC(C)(C)C2 [Compound A295]	10 to 100	10 to 100	100 to 1000	100 to 1000	100 to 1000	100 to 1000	100 to 1000	1000 to 10000	100 to 1000	100 to 1000	–	–	–	–
CCn1c(-c2cccnc2[C@H](C)OC)c2c3cc(ccc31)-c1csc(n1)C[C@H](NC(=O)[C@H](C(C)C)N(C)C(=O)N1C[C@H](C)N(C)C[C@H]1C)C(=O)N1CCC[C@H](N1)C(=O)OCC(C)(C)C2 [Compound A300]	–	10 to 100	1000 to 10000	1000 to 10000	1000 to 10000	1000 to 10000	1000 to 10000	1000 to 10000	1000 to 10000	1000 to 10000	–	–	–	–
CCn1c(-c2cccnc2[C@H](C)OC)c2c3cc(ccc31)-c1csc(n1)C[C@H](NC(=O)[C@H](C(C)C)N(C)C(=O)N1CC(N3CCOCC3)C1)C(=O)N1CCC[C@H](N1)C(=O)OCC(C)(C)C2 [Compound A338]	–	10 to 100	100 to 1000	100 to 1000	100 to 1000	10 to 100	100 to 1000	1000 to 10000	10 to 100	100 to 1000	–	–	–	–
CCn1c(-c2cccnc2[C@H](C)OC)c2c3cc(ccc31)-c1csc(n1)C[C@H](NC(=O)[C@H](C(C)C)N(C)C(=O)N1CCC[C@@H]1CN(C)C)C(=O)N1CCC[C@H](N1)C(=O)OCC(C)(C)C2 [Compound A518]	10 to 100	–	100 to 1000	100 to 1000	100 to 1000	100 to 1000	100 to 1000	100 to 1000	100 to 1000	1000 to 10000	1000 to 10000	100 to 1000	1000 to 10000	100 to 1000
CCn1c(-c2cccnc2[C@H](C)OC)c2c3cc(ccc31)-c1csc(n1)C[C@H](NC(=O)[C@H](C(C)C)N(CCc1ccncc1)C1CC1)C(=O)N1CCC[C@H](N1)C(=O)OCC(C)(C)C2 [Compound A556]	100 to 1000	–	100 to 1000	100 to 1000	100 to 1000	100 to 1000	1000 to 10000	1000 to 10000	100 to 1000	1000 to 10000	100 to 1000	100 to 1000	100 to 1000	100 to 1000
CCn1c(-c2cccnc2[C@H](C)OC)c2c3cc(ccc31)-c1csc(n1)C[C@H](NC(=O)[C@H](C(C)C)N(C)C(=O)[C@@H]1OCC[C@@H]1c1ccccc1)C(=O)N1CCC[C@H](N1)C(=O)OCC(C)(C)C2 [Compound A585]	10 to 100	–	100 to 1000	100 to 1000	100 to 1000	100 to 1000	1000 to 10000	1000 to 10000	100 to 1000	100 to 1000	100 to 1000	100 to 1000	100 to 1000	100 to 1000
CCn1c(-c2cccnc2[C@H](C)OC)c2c3cc(ccc31)-c1cccc(c1)C[C@H](NC(=O)[C@H](C(C)C)N(C)C(=O)[C@@H]1OCC[C@@H]1c1ccccc1)C(=O)N1CCC[C@H](N1)C(=O)OCC(C)(C)C2 [Compound A586]	100 to 1000	–	100 to 1000	100 to 1000	100 to 1000	10 to 100	100 to 1000	100 to 1000	100 to 1000	100 to 1000	100 to 1000	100 to 1000	100 to 1000	100 to 1000
CCn1c(-c2cccnc2[C@H](C)OC)c2c3cc(ccc31)-c1csc(n1)C[C@H](NC(=O)[C@H](C(C)C)N(C)C(=O)N1CCC[C@H]1c1ccccc1)C(=O)N1CCC[C@H](N1)C(=O)OCC(C)(C)C2 [Compound A599]	1000 to 10000	–	1000 to 10000	1000 to 10000	1000 to 10000	1000 to 10000	1000 to 10000	1000 to 10000	1000 to 10000	1000 to 10000	1000 to 10000	100 to 1000	1000 to 10000	1000 to 10000
